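1) Cells in 96-well plates. 2) Compound, 48 h, 5 concentrations. 3) Linear interpolation between surrounding doses. 4) Unreached endpoint = highest concentration. GI50 marks 50% less growth.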 Calls of active or inactive are those of the source. Rule as the data show it: active = GI50 up to about 1.1 µM and inactive = higher.
Experiments:
Test in all cases: NCI tumour cell line growth inhibition, 48 h
A498 = tested on: A498
SN12C = tested on: SN12C
SNB-75 = tested on: SNB-75
SF-268 = tested on: SF-268
CCRF-CEM = tested on: CCRF-CEM
MOLT-4 = tested on: MOLT-4
KM12 = tested on: KM12
SR = tested on: SR
NCI/ADR-RES = tested on: NCI/ADR-RES
SK-MEL-28 = tested on: SK-MEL-28
MDA-N = tested on: MDA-N
DU-145 = tested on: DU-145
OVCAR-5 = tested on: OVCAR-5
A549 = tested on: A549
SF-295 = tested on: SF-295
TK-10 = tested on: TK-10
Hs-578T = tested on: Hs-578T
IGROV-1 = tested on: IGROV-1
HOP-62 = tested on: HOP-62
HCC 2998 = tested on: HCC 2998
UACC-62 = tested on: UACC-62
786-0 = tested on: 786-0
NCI-H23 = tested on: NCI-H23
LOX IMVI = tested on: LOX IMVI
M14 = tested on: M14
PC-3 = tested on: PC-3
HL-60 = tested on: HL-60
MDA-MB-231 = tested on: MDA-MB-231
SK-MEL-5 = tested on: SK-MEL-5
MDA-MB-435 = tested on: MDA-MB-435
OVCAR-8 = tested on: OVCAR-8
NCI-H522 = tested on: NCI-H522
T47D = tested on: T47D
SNB-19 = tested on: SNB-19
OVCAR-4 = tested on: OVCAR-4
MCF7 = tested on: MCF7
SF-539 = tested on: SF-539
CAKI-1 = tested on: CAKI-1
HCT-116 = tested on: HCT-116
HCT-15 = tested on: HCT-15
SW-620 = tested on: SW-620
U-251 = tested on: U-251
RPMI-8226 = tested on: RPMI-8226
HOP-92 = tested on: HOP-92
ACHN = tested on: ACHN
UO-31 = tested on: UO-31
Malme-3M = tested on: Malme-3M
UACC-257 = tested on: UACC-257
SK-MEL-2 = tested on: SK-MEL-2
HT-29 = tested on: HT-29
EKVX = tested on: EKVX
NCI-H460 = tested on: NCI-H460
COLO 205 = tested on: COLO 205
BT-549 = tested on: BT-549
OVCAR-3 = tested on: OVCAR-3
SK-OV-3 = tested on: SK-OV-3
NCI-H226 = tested on: NCI-H226

**Q.** What does the source list for CCOC(=O)c1nc2ccccc2nc1Nc1ccc(C(=O)OC)s1?
**A.** GI50 (A498): > 100 µM (inactive); GI50 (SN12C): > 100 µM (inactive); GI50 (SNB-75): > 100 µM (inactive); GI50 (SF-268): > 100 µM (inactive); GI50 (CCRF-CEM): > 100 µM (inactive); GI50 (MOLT-4): > 100 µM (inactive); GI50 (KM12): > 100 µM (inactive); GI50 (SR): > 100 µM (inactive); GI50 (NCI/ADR-RES): > 100 µM (inactive); GI50 (SK-MEL-28): > 100 µM (inactive); GI50 (MDA-N): > 100 µM (inactive); GI50 (DU-145): > 100 µM (inactive); GI50 (OVCAR-5): > 100 µM (inactive); GI50 (A549): > 100 µM (inactive); GI50 (SF-295): > 100 µM (inactive); GI50 (TK-10): > 100 µM (inactive); GI50 (Hs-578T): > 100 µM (inactive); GI50 (IGROV-1): > 100 µM (inactive); GI50 (HOP-62): > 100 µM (inactive); GI50 (HCC 2998): > 100 µM (inactive); GI50 (UACC-62): > 100 µM (inactive); GI50 (786-0): > 100 µM (inactive); GI50 (NCI-H23): > 100 µM (inactive); GI50 (LOX IMVI): > 100 µM (inactive); GI50 (M14): > 100 µM (inactive); GI50 (PC-3): > 100 µM (inactive); GI50 (HL-60): > 100 µM (inactive); GI50 (MDA-MB-231): > 100 µM (inactive); GI50 (SK-MEL-5): > 100 µM (inactive); GI50 (MDA-MB-435): > 100 µM (inactive); GI50 (OVCAR-8): > 100 µM (inactive); GI50 (NCI-H522): 47.4 µM (inactive); GI50 (T47D): > 100 µM (inactive); GI50 (SNB-19): > 100 µM (inactive); GI50 (OVCAR-4): > 100 µM (inactive); GI50 (MCF7): > 100 µM (inactive); GI50 (SF-539): > 100 µM (inactive); GI50 (CAKI-1): > 100 µM (inactive); GI50 (HCT-116): > 100 µM (inactive); GI50 (HCT-15): > 100 µM; GI50 (SW-620): > 100 µM (inactive); GI50 (U-251): > 100 µM (inactive); GI50 (RPMI-8226): > 100 µM (inactive); GI50 (HOP-92): > 100 µM (inactive); GI50 (ACHN): > 100 µM (inactive); GI50 (UO-31): > 100 µM (inactive); GI50 (Malme-3M): 18.5 µM (inactive); GI50 (UACC-257): > 100 µM (inactive); GI50 (SK-MEL-2): > 100 µM (inactive); GI50 (HT-29): > 100 µM (inactive); GI50 (EKVX): > 100 µM (inactive); GI50 (NCI-H460): > 100 µM (inactive); GI50 (COLO 205): > 100 µM (inactive); GI50 (BT-549): > 100 µM (inactive); GI50 (OVCAR-3): > 100 µM (inactive)

**Q.** How did the GI50 (SN12C) turn out when COc1ccc(-n2sc3ncc([N+](=O)[O-])cc3c2=O)cc1 was run?
**A.** > 100 µM (inactive)

**Q.** What about the GI50 (SNB-75) of the same molecule?
**A.** > 100 µM (inactive)

**Q.** And the GI50 (SF-268)?
**A.** > 100 µM (inactive)

**Q.** What about the GI50 (CCRF-CEM) of the same molecule?
**A.** 96.4 µM (inactive)

**Q.** And the GI50 (MOLT-4)?
**A.** > 100 µM (inactive)

**Q.** What about the GI50 (KM12) of the same molecule?
**A.** > 100 µM (inactive)

**Q.** And the GI50 (SR)?
**A.** > 100 µM (inactive)

**Q.** And the GI50 (NCI/ADR-RES)?
**A.** > 100 µM (inactive)

**Q.** What about the GI50 (SK-MEL-28) of the same molecule?
**A.** > 100 µM (inactive)

**Q.** And the GI50 (MDA-N)?
**A.** > 100 µM (inactive)

**Q.** What about the GI50 (DU-145) of the same molecule?
**A.** > 100 µM (inactive)

**Q.** What about the GI50 (OVCAR-5) of the same molecule?
**A.** > 100 µM (inactive)

**Q.** What about the GI50 (A549) of the same molecule?
**A.** > 100 µM (inactive)

**Q.** And the GI50 (SK-OV-3)?
**A.** > 100 µM (inactive)

**Q.** And the GI50 (SF-295)?
**A.** > 100 µM (inactive)

**Q.** And the GI50 (TK-10)?
**A.** > 100 µM (inactive)

**Q.** What about the GI50 (Hs-578T) of the same molecule?
**A.** 32.1 µM (inactive)

**Q.** And the GI50 (IGROV-1)?
**A.** > 100 µM (inactive)

**Q.** What about the GI50 (HOP-62) of the same molecule?
**A.** > 100 µM (inactive)

**Q.** And the GI50 (HCC 2998)?
**A.** > 100 µM (inactive)

**Q.** And the GI50 (UACC-62)?
**A.** > 100 µM (inactive)

**Q.** And the GI50 (786-0)?
**A.** > 100 µM (inactive)

**Q.** And the GI50 (NCI-H23)?
**A.** > 100 µM (inactive)

**Q.** And the GI50 (LOX IMVI)?
**A.** > 100 µM (inactive)

**Q.** What about the GI50 (M14) of the same molecule?
**A.** > 100 µM (inactive)

**Q.** What about the GI50 (PC-3) of the same molecule?
**A.** > 100 µM (inactive)

**Q.** And the GI50 (HL-60)?
**A.** > 100 µM (inactive)

**Q.** What about the GI50 (MDA-MB-231) of the same molecule?
**A.** > 100 µM (inactive)

**Q.** What about the GI50 (SK-MEL-5) of the same molecule?
**A.** > 100 µM (inactive)

**Q.** And the GI50 (MDA-MB-435)?
**A.** > 100 µM (inactive)

**Q.** And the GI50 (OVCAR-8)?
**A.** > 100 µM (inactive)

**Q.** And the GI50 (NCI-H522)?
**A.** 34.4 µM (inactive)

**Q.** And the GI50 (T47D)?
**A.** > 100 µM (inactive)

**Q.** What about the GI50 (SNB-19) of the same molecule?
**A.** > 100 µM (inactive)

**Q.** And the GI50 (OVCAR-4)?
**A.** > 100 µM (inactive)

**Q.** What about the GI50 (MCF7) of the same molecule?
**A.** > 100 µM (inactive)

**Q.** And the GI50 (SF-539)?
**A.** > 100 µM (inactive)

**Q.** What about the GI50 (HCT-116) of the same molecule?
**A.** > 100 µM (inactive)

**Q.** What about the GI50 (HCT-15) of the same molecule?
**A.** > 100 µM

**Q.** And the GI50 (NCI-H226)?
**A.** > 100 µM (inactive)

**Q.** What about the GI50 (SW-620) of the same molecule?
**A.** > 100 µM (inactive)

**Q.** And the GI50 (U-251)?
**A.** > 100 µM (inactive)

**Q.** What about the GI50 (RPMI-8226) of the same molecule?
**A.** > 100 µM (inactive)

**Q.** What about the GI50 (ACHN) of the same molecule?
**A.** > 100 µM (inactive)

**Q.** And the GI50 (UO-31)?
**A.** > 100 µM (inactive)

**Q.** And the GI50 (Malme-3M)?
**A.** > 100 µM (inactive)

**Q.** And the GI50 (UACC-257)?
**A.** > 100 µM (inactive)

**Q.** What about the GI50 (SK-MEL-2) of the same molecule?
**A.** > 100 µM (inactive)

**Q.** And the GI50 (HT-29)?
**A.** > 100 µM (inactive)

**Q.** And the GI50 (EKVX)?
**A.** > 100 µM (inactive)

**Q.** And the GI50 (NCI-H460)?
**A.** > 100 µM (inactive)

**Q.** What about the GI50 (COLO 205) of the same molecule?
**A.** > 100 µM (inactive)

**Q.** And the GI50 (BT-549)?
**A.** > 100 µM (inactive)

**Q.** What about the GI50 (OVCAR-3) of the same molecule?
**A.** > 100 µM (inactive)

Reference: ChEMBL document CHEMBL1201862, “PubChem BioAssay data set” (2004)
